According to patent US20260226101A1, “PEPTIDE WITH ANTI-INFLAMMATORY AND ANTI-MICROBIAL ACTIVITY” (priority 2023, published 2026):

Experiment: in vitro
Type: cell-based, murine
Conditions: mouse
Description: Cell viability of synthetic peptides on the growth of RAW264.7 cells was measured using the methyl thiazolyl tetrazolium (MTT) assay after 48 h. Briefly, exponentially growing macrophages RAW264.7 cells were mechanically scraped, plated at a density of 7×10^3 cells in 100 μl were seeded into each well of a 96-well plate then incubated for 12 h at 37° C. under 5% CO2, and then the cells are treated with test peptides: IS 111 ([…]) or dexamethasone ([…]) cells were incubated at 37° C. in the presence of 5% CO2 for 42 h. After incubation, the morphology of cells was examined under a microscope. Following incubation, MTT was added to the cells (20 μL at 5 mg/mL MTT dissolved in 1×PBS) and incubated for 4 hours in the presence of 5% CO2 at 37° C. Formazan crystals were dissolved by the addition of 100 μL of 100% DMSO per well. Plates were then gently swirled for 5 min at room temperature to dissolve the precipitate. Absorbance was monitored at 575 nm using a microplate reader. Maximum cytotoxicity (100%) was determined by cells incubated with 1% Triton X-100; PBS was used as a negative control. Cells without treatment were considered as control. The average absorbance for each sample group was used to evaluate cell viability.
Optical density (O.D.) was calculated as the difference between the absorbance at the reference wavelength and that at the test wavelength. The relative cell viability was determined by the amount of MTT converted to the insoluble formazan salt. The data were expressed as the mean percentage of viable cells when compared with untreated cells (control). The half maximal growth inhibitory concentration (IC50) value was calculated from the line equation of the dose-dependent curve of each compound. The results were compared with the cytotoxic activity of dexamethasone, a known anti-inflammatory drug. […] Percentages of cell viability and LC50 of cells were calculated: Percent cell viability was calculated as (O.D. of drug-treated sample/control O.D.)×100. The data were expressed as percent cell viability compared with control (dimethyl sulfoxide/NS). The experiment was carried out in four samples of each concentration.
The percentages of cell viability and LC50 of cells were calculated by using the formula below.
Where Absorbance control is the DMSO 0.1%-treated cell absorbance, and Absorbance sample is the test sample-treated cell absorbance. LC50 values were derived from dose-response curves, and data were expressed as the mean of three independent experiments. Statistical analyses involved Student's t-test and one-way ANOVA.
The test peptide IS 111 cytotoxic effects on RAW 264.7 mouse […] were determined by MTT assay. […] Cell viability was measured by MTT assay based on the conversion of yellow tetrazolium salt to form a purple formazan product. The viability of the RAW 264.7 cells can be seen on table 21.

With `C[C@@H]1C[C@H]2[C@@H]3CCC4=CC(=O)C=C[C@]4(C)[C@@]3(F)[C@@H](O)C[C@]2(C)[C@@]1(O)C(=O)CO` [Dexamethasone, dexamethasone, reference compound] the viability at 48 h, 7.8125 µg/mL was 102%, the viability at 48 h, 15.625 µg/mL was 90% and the viability at 48 h, 31.25 µg/mL was 82.8%. It also gave a viability at 48 h, 62.5 µg/mL of 91.4%, a viability at 48 h, 125 µg/mL of 96% and a viability at 48 h, 250 µg/mL of 90.8%. For the same molecule, the viability at 48 h, 500 µg/mL was 84.6%.
